Key:
[1] = target: T1, M1 muscarinic receptor (Homo sapiens, UniProt P11229); experiment: Functional mobilization of intracellular calcium (FLIPR), M1-CHO cells; assay type: cell-based; conditions: for Emax: 100% efficacy is the maximum response obtained using Carbachol as a control; for M1 Activity: M1-CHO cells, FLIPR calcium mobilization
T1 construct: expressed in transfected cells; host or cells: CHO (M1-CHO)
T1 sequence (P11229 1-460): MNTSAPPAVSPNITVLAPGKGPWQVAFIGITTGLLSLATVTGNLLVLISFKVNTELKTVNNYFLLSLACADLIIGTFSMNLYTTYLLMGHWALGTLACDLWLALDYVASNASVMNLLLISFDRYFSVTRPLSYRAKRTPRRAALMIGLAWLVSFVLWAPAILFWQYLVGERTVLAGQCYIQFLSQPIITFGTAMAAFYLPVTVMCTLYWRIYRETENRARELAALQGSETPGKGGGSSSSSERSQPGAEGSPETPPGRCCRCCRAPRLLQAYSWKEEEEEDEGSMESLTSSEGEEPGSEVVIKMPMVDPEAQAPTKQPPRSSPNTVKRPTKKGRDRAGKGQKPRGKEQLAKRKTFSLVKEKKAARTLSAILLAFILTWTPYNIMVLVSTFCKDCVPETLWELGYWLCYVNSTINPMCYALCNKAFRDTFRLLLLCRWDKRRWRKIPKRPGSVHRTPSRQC
How it was run: (§1)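 CHO cells expressing M1 or M4, loaded with Fluo-3 AM or Calcium 3 dye with 1 mM probenecid, 0.5% DMSO final. Agonist mode: compound added directly; antagonist mode: 15 min pre-incubation (or co-application) before carbachol at EC80. Fluorescence recorded 60 s on FLIPR.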

[2] = target: T2, M4 muscarinic receptor (Homo sapiens, UniProt P08173); experiment: Functional mobilization of intracellular calcium (FLIPR), M4-CHO cells; assay type: cell-based; conditions: for Emax: 100% efficacy is the maximum response obtained using Carbachol as a control; for M4 Activity: M4-CHO cells, FLIPR calcium mobilization
T2 construct: expressed in transfected cells; host or cells: CHO (M4-CHO)
T2 sequence (P08173 1-479): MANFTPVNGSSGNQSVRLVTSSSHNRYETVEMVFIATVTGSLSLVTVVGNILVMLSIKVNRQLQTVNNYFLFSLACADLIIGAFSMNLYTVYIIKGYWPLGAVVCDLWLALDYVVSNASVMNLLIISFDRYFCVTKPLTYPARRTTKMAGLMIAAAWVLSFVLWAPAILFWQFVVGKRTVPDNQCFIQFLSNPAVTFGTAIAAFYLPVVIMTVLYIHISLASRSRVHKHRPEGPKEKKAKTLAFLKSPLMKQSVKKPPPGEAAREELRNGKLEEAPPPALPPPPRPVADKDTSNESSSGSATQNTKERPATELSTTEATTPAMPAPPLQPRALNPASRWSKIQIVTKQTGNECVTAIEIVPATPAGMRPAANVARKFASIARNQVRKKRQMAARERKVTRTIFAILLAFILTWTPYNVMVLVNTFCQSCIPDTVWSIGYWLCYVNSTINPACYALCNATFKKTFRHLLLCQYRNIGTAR
How it was run: as §1

SMILES	Emax [1] [%]	M1 Activity [1]	Emax [2] [%]	M4 Activity [2]
CCOC(=O)N1C2CCC(N3CCC4(CC3)CN(C(=O)OC3CCC3)Cc3ccccc34)CC1CC2 (stereo not shown) [compound 112]	25 to 100	+++ (activity was measured to be less than 1.0 μM)	25 to 100	+++ (activity was measured to be less than 1.0 μM)
CCCOC(=O)N1C2CCC1CC(N1CCC3(CC1)CN(S(=O)(=O)N(C)C)Cc1ccccc13)C2 (stereo not shown) [compound 125]	25 to 100	+++ (activity was measured to be less than 1.0 μM)	25 to 100	+++ (activity was measured to be less than 1.0 μM)
CCOC(=O)N1CCC(N2CCC3(CC2)CN(C(=O)C2CCCC2)Cc2ccccc23)CC1 [compound 10]	25 to 100	+++ (activity was measured to be less than 1.0 μM)	< 25	++ (activity was measured to be from 1.0 μM to 5.0 μM)
CCCCOC(=O)N1Cc2ccccc2C2(CCN(C3CC4CCC(C3)N4C(=O)OCC)CC2)C1 (stereo not shown) [compound 148]	25 to 100	+++ (activity was measured to be less than 1.0 μM)	25 to 100	+++ (activity was measured to be less than 1.0 μM)
CCOC(=O)N1CCC(N2CCC3(CC2)CN(C(=O)Oc2ccc(F)cc2)Cc2ccccc23)CC1 [compound 342]	25 to 100	+++ (activity was measured to be less than 1.0 μM)	25 to 100	+++ (activity was measured to be less than 1.0 μM)
CCNC(=O)N1Cc2ccccc2C2(CCN(C3CCN(C(=O)OCC)CC3)CC2)C1 [compound 168]	25 to 100	+++ (activity was measured to be less than 1.0 μM)	25 to 100	+++ (activity was measured to be less than 1.0 μM)
CCOC(=O)N1C2CCC1CC(N1CCC3(CC1)CN(C(=O)OC1CCCC1)Cc1ccccc13)C2 (stereo not shown) [compound 14]	25 to 100	+++ (activity was measured to be less than 1.0 μM)	25 to 100	+++ (activity was measured to be less than 1.0 μM)
CC(=O)N1Cc2ccccc2C2(CCN(C3CC4CCC(C4)C3)CC2)C1 (stereo not shown) [compound 21]	25 to 100	+ (activity was measured to be greater than 5.0 μM)	25 to 100	+ (activity was measured to be greater than 5.0 μM)
O=C1c2ccccc2C2(CCN([C@@H]3C[C@@H]4CC[C@@H]3C4)CC2)N1Cc1ccccc1 [compound 227]	< 25	+ (activity was measured to be greater than 5.0 μM)	< 25	+ (activity was measured to be greater than 5.0 μM)
CCOC(=O)N1CCC(CN2CCC3(CC2)CN(C(=O)c2ccccn2)Cc2ccccc23)CC1 [compound 330]	25 to 100	+++ (activity was measured to be less than 1.0 μM)	25 to 100	+++ (activity was measured to be less than 1.0 μM)
CCCOC(=O)N1CC(CN2CCC3(CC2)CN(C(C)=O)Cc2ccccc23)C1 [compound 287]	< 25	+ (activity was measured to be greater than 5.0 μM)	< 25	+ (activity was measured to be greater than 5.0 μM)
COC(=O)N1C2CCC1CC(N1CCC3(CC1)CN(C(C)=O)Cc1ccccc13)C2 (stereo not shown) [compound 140]	25 to 100	+++ (activity was measured to be less than 1.0 μM)	25 to 100	+++ (activity was measured to be less than 1.0 μM)
CCOC(=O)N1C2CCC1CC(N1CCC3(CC1)CN(C(=O)c1cc(C)n(C)n1)Cc1ccccc13)C2 (stereo not shown) [compound 219]	25 to 100	+++ (activity was measured to be less than 1.0 μM)	25 to 100	+++ (activity was measured to be less than 1.0 μM)
C#CCOC(=O)N1C2CCC1CC(N1CCC3(CC1)CN(C(C)=O)Cc1ccccc13)C2 (stereo not shown) [compound 156]	25 to 100	+++ (activity was measured to be less than 1.0 μM)	25 to 100	+++ (activity was measured to be less than 1.0 μM)
COC(=O)N1CCC(CN2CCC3(CC2)CN(C(C)=O)Cc2ccccc23)CC1 [compound 74]	25 to 100	+++ (activity was measured to be less than 1.0 μM)	25 to 100	+++ (activity was measured to be less than 1.0 μM)
CCOC(=O)N1CCC(N2CCC3(CC2)CN(C(=O)c2ccno2)Cc2ccccc23)CC1 [compound 46]	25 to 100	+++ (activity was measured to be less than 1.0 μM)	25 to 100	+++ (activity was measured to be less than 1.0 μM)
CCOC(=O)N1CCC(N2CCC3(CC2)CN(C(=O)NC(C)(C)C)Cc2ccccc23)CC1 [compound 53]	25 to 100	+++ (activity was measured to be less than 1.0 μM)	25 to 100	+++ (activity was measured to be less than 1.0 μM)
CCCCOC(=O)N1Cc2ccccc2C2(CCN(C3CCN(C(=O)OCC)CC3)CC2)C1 [compound 56]	25 to 100	+++ (activity was measured to be less than 1.0 μM)	25 to 100	+++ (activity was measured to be less than 1.0 μM)
CC(=O)N1Cc2ccccc2C2(CCN(Cc3ccccc3O)CC2)C1 [compound 297]	< 25	+ (activity was measured to be greater than 5.0 μM)	< 25	+ (activity was measured to be greater than 5.0 μM)
CC(=O)N1Cc2ccccc2C2(CCN(C3CCN(C(=O)OC4CCC4)CC3)CC2)C1 [compound 258]	25 to 100	+++ (activity was measured to be less than 1.0 μM)	25 to 100	+++ (activity was measured to be less than 1.0 μM)
CCOC(=O)N1C2CCC1CC(N1CCC3(CC1)CN(C(=O)Nc1ccc(F)cc1)Cc1ccccc13)C2 (stereo not shown) [compound 132]	25 to 100	+++ (activity was measured to be less than 1.0 μM)	25 to 100	+++ (activity was measured to be less than 1.0 μM)
CCOC(=O)N1CCC(N2CCC3(CC2)CN(S(=O)(=O)c2ccc(F)cc2)Cc2ccccc23)CC1 [compound 337]	25 to 100	+++ (activity was measured to be less than 1.0 μM)	25 to 100	+++ (activity was measured to be less than 1.0 μM)
Cc1ccc2c(c1)C1(CCN(C3CCOCC3)CC1)OC2=O [compound 180]	25 to 100	+ (activity was measured to be greater than 5.0 μM)	25 to 100	+ (activity was measured to be greater than 5.0 μM)
CC(=O)N1Cc2ccccc2C2(CCN(CC3=C(C)C=CCC3(C)C)CC2)C1 [compound 65]	25 to 100	+ (activity was measured to be greater than 5.0 μM)	25 to 100	+ (activity was measured to be greater than 5.0 μM)
CCOC(=O)N1C2CCC1CC(N1CCC3(CC1)CN(C(=O)c1cc(C)nn1C(C)(C)C)Cc1ccccc13)C2 (stereo not shown) [compound 15]	25 to 100	+++ (activity was measured to be less than 1.0 μM)	25 to 100	+++ (activity was measured to be less than 1.0 μM)
CC(=O)N1Cc2ccccc2C2(CCN(C3C4CC5CC(C4)CC3C5)CC2)C1 (stereo not shown) [compound 170]	25 to 100	+++ (activity was measured to be less than 1.0 μM)	25 to 100	+++ (activity was measured to be less than 1.0 μM)
CCOC(=O)N1CCC(CN2CCC3(CC2)CN(S(=O)(=O)c2ccc(F)cc2)Cc2ccccc23)CC1 [compound 345]	25 to 100	+++ (activity was measured to be less than 1.0 μM)	25 to 100	+++ (activity was measured to be less than 1.0 μM)
CN(C)C(=O)N1Cc2ccccc2C2(CCN(C3CC4CCC(C3)N4C(=O)OC3CCC3)CC2)C1 (stereo not shown) [compound 327]	25 to 100	+++ (activity was measured to be less than 1.0 μM)	25 to 100	+++ (activity was measured to be less than 1.0 μM)
